Data published in patent US8519110B2, “mRNA cap analogs” (Board of Supervisors of Louisiana State University And …, priority 2008, dated 2013).
Like-named read-outs stand apart in the source and are kept apart here.

What was measured:
[1] = system: rabbit reticulocyte lysate system; test: In vitro translation efficiency of capped luciferase mRNA with 31-base poly(A) tail, method II transcripts; assay type: biochemical; settings: for In vitro translational efficiency (method II): Table 3, relative to m^7GpppG-capped mRNA = 1.0; for Translation efficiency in comparison to m^7GpppG-LUC-(A)31 mRNA, Experiment No. 1: experiment 1; for Translation efficiency in comparison to m^7GpppG-LUC-(A)31 mRNA, Experiment No. 2: experiment 2; for Translation efficiency in comparison to m^7GpppG-LUC-(A)31 mRNA, Experiment No. 3: experiment 3; for Translation efficiency in comparison to m^7GpppG-LUC-(A)31 mRNA, Experiment No. 4: experiment 4; for Translation efficiency in comparison to m^7GpppG-LUC-(A)31 mRNA, Mean: mean of experiments; for Translation efficiency in comparison to m^7GpppG-LUC-(A)31 mRNA, Experiment No. 5: experiment 5
Procedure, shortened: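 Cap-analog-primed SP6 transcripts (β-globin 5′-UTR, firefly luciferase, 31-A tail; 0.5 mM cap analog, 0.1 mM GTP) were translated in nuclease-treated rabbit reticulocyte lysate for 60 min at 30° C at 0.25–4 μg/ml mRNA. Efficiency is the slope of luciferase activity versus mRNA concentration, relative to m^7GpppG-capped mRNA (1.0).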

eIF4E = eIF4E (Mus musculus, UniProt P63073); test: Binding affinity of cap analogs to eIF4E by fluorescence titration; settings: equilibrium association constant; for Cap analog-eIF4E affinity (KAS): Table 3; for Cap analog/eIF4E affinity (KAS): 20 °C, pH 7.2, ionic strength 150 mM
Chain of eIF4E (P63073 28-217 limits assumed): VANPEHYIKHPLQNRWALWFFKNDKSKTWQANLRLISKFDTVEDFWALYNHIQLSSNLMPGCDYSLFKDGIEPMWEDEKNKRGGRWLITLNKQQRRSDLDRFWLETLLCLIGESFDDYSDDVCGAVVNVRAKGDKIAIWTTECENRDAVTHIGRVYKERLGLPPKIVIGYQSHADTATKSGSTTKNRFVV
Procedure, shortened: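 Cap analogue was titrated into 0.1 or 0.2 μM eIF4E at 20.0° C, in 50 mM HEPES/KOH pH 7.2 with 0.5 mM EDTA and 1 mM DTT, ionic strength 150 mM (KCl). Fluorescence quenching was read at excitation 280 or 295 nm and emission 337 nm, corrected for dilution and inner filter. Kas is a weighted average of 3–10 titration fits.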

[2] = biological target: cap-dependent translation of luciferase mRNA in reticulocyte lysate; test: Inhibition of cap-dependent translation in vitro by free cap analogs; assay type: biochemical, rabbit
Protocol: In vitro translation reactions were performed in 12.5 μl for 60 min at 30° C. under conditions favorable for cap-dependent translation. In some cases, the reaction mixture was incubated for 60 min at 30° C. prior to adding the dinucleotide cap analog (inhibitor) and m2^7,3′-OGppG-capped luciferase mRNA to start translation. In other cases, to analyze biological stability, the cap analog was incubated in the translation mixture for 60 min at 30° C. prior to adding the luciferase mRNA to start translation. A typical reaction mixture contained 56% reticulocyte lysate, the 20 “standard” amino acids (0.01 mM each), MgCl2 (1.2 mM), potassium acetate (170 mM), RiboLock Ribonuclease Inhibitor (0.32 U/μl), cap analog solution ( 1/10 of total reaction volume), and m2^7,3′-OGpppG-capped luciferase RNA. […] Reactions were performed with cap analog concentrations ranging from 0.12 to 100 μM. Luciferase activity was measured in a luminometer. […] The program OriginPro8 (OriginLab) was used for curve fitting with the equation qLUC=Z/(1+I/IC50)+N, where qLUC is the activity of luciferase synthesized in the presence of cap analog, Z is the activity of luciferase synthesized in the absence of cap analog, N is the activity of luciferase synthesized in a cap-independent manner, and I is the cap analog concentration.
Two type of experiments were carried out. In one set of experiments (condition A), a cap analog was added to the translation system together with luciferase mRNA. In the other set of experiments (condition B), the cap analog was incubated in the translation system for 60 min before addition of mRNA. […] There was a correlation between the resistance to hydrolysis by DcpS and the stability of analogs in the translation system.

[3] = Table 3, cap analog added together with mRNA, read-out: Inhibition of in vitro translation (IC50), condition A
[4] = Table 3, cap analog preincubated 60 min in lysate, read-out: Inhibition of in vitro translation (IC50), condition B
[5] = cap analog added together with luciferase mRNA, read-out: Inhibition of in vitro translation (IC50), condition A
[6] = cap analog incubated in translation system 60 min before addition of mRNA, read-out: Inhibition of in vitro translation (IC50), condition B

In vitro translational efficiency (method II) [1]	Translation efficiency in comparison to m^7GpppG-LUC-(A)31 mRNA, Experiment No. 1 [1]	Translation efficiency in comparison to m^7GpppG-LUC-(A)31 mRNA, Experiment No. 2 [1]	Translation efficiency in comparison to m^7GpppG-LUC-(A)31 mRNA, Experiment No. 3 [1]	Translation efficiency in comparison to m^7GpppG-LUC-(A)31 mRNA, Experiment No. 4 [1]	Translation efficiency in comparison to m^7GpppG-LUC-(A)31 mRNA, Mean [1]	Cap analog-eIF4E affinity (KAS) (eIF4E) [μM^−1]	IC50 [2, 3] [µM]	IC50 [2, 4] [µM]	Translation efficiency in comparison to m^7GpppG-LUC-(A)31 mRNA, Experiment No. 5 [1]	Cap analog/eIF4E affinity (KAS) (eIF4E) [μM^−1]	IC50 [2, 5] [µM]	IC50 [2, 6] [µM]	Molecule
2.24 ± 0.28	2.05	2.09	2.16	2.65	2.24	38.5 ± 0.7	8.4 ± 1.4	14.7 ± 1.6					CO[C@@H]1[C@H](O)[C@@H](COP(=O)(O)OP(O)(=[Se])OP(=O)(O)OC[C@H]2O[C@@H](n3cnc4c(=O)[nH]c(N)nc43)[C@H](O)[C@@H]2O)O[C@H]1n1c[n+](C)c2c(=O)[nH]c(N)nc21 (single isomer, unassigned) [m2^7,2′-OGppSepG (D1), m2^7,2′-OGppSepG]
2.31 ± 0.22	2.53	2.31	2.09		2.31	19.0 ± 0.5	3.9 ± 0.5	11.4 ± 7.2					CO[C@@H]1[C@H](O)[C@@H](COP(=O)(O)OP(O)(=[Se])OP(=O)(O)OC[C@H]2O[C@@H](n3cnc4c(=O)[nH]c(N)nc43)[C@H](O)[C@@H]2O)O[C@H]1n1c[n+](C)c2c(=O)[nH]c(N)nc21 (single isomer, unassigned) [m2^7,2′-OGppSepG (D2), m2^7,2′-OGppSepG]
1.00	1.00	1.00	1.00	1.00	1.00	9.4 ± 0.4	8.3 ± 0.2	35.1 ± 10.8	1.00	9.4 ± 0.4	8.3 ± 0.2	35.1 ± 10.8	Cn1c[n+]([C@@H]2O[C@H](COP(=O)(O)OP(=O)(O)OP(=O)(O)OC[C@H]3O[C@@H](n4cnc5c(=O)[nH]c(N)nc54)[C@H](O)[C@@H]3O)[C@@H](O)[C@H]2O)c2nc(N)[nH]c(=O)c21 [m^7GpppG, m^7G(5′)ppp(5′)G, reference compound]
					3.56				3.56	11.1 ± 0.2	3 ± 0.1	3 ± 0.2	m^7GppBH3pm^7G
